± gives the expanded uncertainty stated by the source.
Key:
[1] = Crystal; DTA
[2] = Molar enthalpy of transition or fusion; settings: Crystal; DSC

## COC(=O)N(OC)c1ccccc1COc1ccn(-c2ccc(Cl)cc2)n1 [Pyraclostrobin]
[1]
  Normal melting temperature: 60.6 ± 0.6 °C
[2]
  Molar enthalpy of transition or fusion: 7.42 ± 0.311 kcal/mol

Reference: the NIST ThermoML archive (doi:10.1016/j.jct.2016.05.005)
